Measurements from patent publication US20170211048A1, “ENHANCED REPROGRAMMING TO IPS CELLS” (Boehringer Ingelheim International GmbH, priority 2014, published 2017).

Key:
Assay type in all cases: cell-based, mouse
[1] = system: Reprogrammable transgenic MEFs (Tet-OKSM, Rosa26-rtTAM2, Oct4-GFP); assay: transient siRNA transfection during iPSC reprogramming; settings: siRNA transfected 1 to 3 times during doxycycline treatment
From the text: FIG. 26: Transient suppression of Chaf1a, Chaf1b or Ube2i using siRNA transfection enhances iPSC reprogramming. Reprogrammable transgenic MEFs (Tet-OKSM, Rosa26-rtTAM2, Oct4-GFP) where transfected 1 to 3 times at the indicated days of doxycyline treatment with siRNAs targeting Renilla, Chaf1a, Chaf1b, Ube2i. Shown is the fraction of Oct4-GFP positive cells after 11 days. […] Suppression of these targets at early time points of reprogramming (day 1-3 following OKSM expression) seems critical and sequential transfections at different days can enhance this effect. […] The siRNA molecules used in the study have the following sequence: Ube2i.414—2: […] (SEQ ID NO:103), Chaf1a.3120 […] (SEQ ID NO:104), Chaf1b.271 […] (SEQ ID NO:105) and Ren.713 […] (SEQ ID NO:106).

[2] = system: Oct4-GFP;CAGGS-rtTA3 double-transgenic MEFs; assay: short-term transient OKSM expression and Tet-regulated shRNA; settings: doxycycline for 2 or 4 days
Experimental: FIG. 22: Short-term transient expression of OKSM and suppression of Chaf1a for only 2-4 days enable robust iPSC reprogramming. Oct4-GFP;CAGGS-rtTA3 double-transgenic MEFs were first transduced with a Tet-regulatable shRNA expression vector encoding a potent Chaf1a shRNA (T3G-mCherry-miRE.Chaf1a.3118), and 3 days later transduced with lentiviral vectors inducibly expressing OKSM from the Tet-responsive promoters TRE (TetO-STEMCCA) or TRE3G (T3G-4Fpuro). Cell were treated with doxycyline for 2 or 4 days starting at day in OKSM infection, triggering a transient and reversible OKSM expression and Chaf1a suppression. Shown is the percentage of Oct4-GFP positive cells at day 11 after lentiviral infection. Error bars indicate standard deviation (SD) of 3 biological replicates. Suppression of Chaf1a, Chaf1b and Ube2i enhance iPSC reprogramming in the use of both Tet-inducible OKSM expression vectors.

[3] = system: reprogrammable MEFs; assay: FACS based timeline of Oct4-GFP expression during reprogramming; settings: days of OKSM expression, FIG. 3
From the text: In order to observe the kinetics of reprogramming in the enhanced reprogramming regimen, we quantified GFP positive cells using FACS analysis. GFP driven from the endogenous Oct4 locus serves as a marker for Oct4 expression and thus iPS and possibly pre-iPS state. […] In contrast, Ube2i suppression only slightly accelerated the reprogramming timeline, but made the process much more efficient, and ultimately exceeds the effects of observed for Caf-1 suppression (i.e. the percentage of GFP+ cells actually overtakes the enhancement achieve through Caf-1 suppression at day 10).
The inventors further decided to examine the effects of the gene expression reduction in the absence of the identified chromatin barriers, by following the emergence of Oct4-GFP^+ cells over time. While suppression of Ube2i promoted Oct4-GFP activation slightly earlier than controls (day six with Ube2i shRNA vs. day nine with Renilla shRNA), the suppression of either CAF-1 subunit triggered a dramatic acceleration of this process and consistently generated Oct4-GFP+ cells as early as four days of OKSM expression (FIG. 3). Similar effects were observed by flow cytometry-based analysis of Nanog expression (FIG. 15).

[4] = system: MEFs with doxycycline inducible reprogramming factors; assay: iPS colony formation assay in serum replacement, LIF and 2i; settings: 2i plus LIF at single cell density, 10000 cells/10 cm dish, doxycycline 7 days
From the text: In order to test the achieved factor of iPS formation enhancement in a colony formation assay, we chose optimal conditions described for iPS formation, i.e. serum replacement, LIF and 2i. The two inhibitors (2i) are shown to support the ground state of pluripotency and enhance iPS formation. More specifically, 2i supports the transition of pre-iPS cells to iPS cells.
In doing so, we intended to measure the factor of improvement in optimal, potentially saturated conditions. 10000 cells were plated/10 cm dish and reprogramming was induced by addition of doxycycline for 7 days. Reprogramming in presence of 2i furthermore represents an additional condition to test versatility of herein described enhanced reprogramming regimen. […]

[5] = system: OSKM/RR/OG-MEFs; assay: single-shRNA validation, flow cytometry of the Oct4-GFP reporter; settings: FIG. 1, day 11 after doxycycline induction; DMEM with FCS and ascorbate
Experimental: To validate hits identified in the primary multiplexed screen, a set of 32 independent shRNAs including several of the top hits as well as a panel of intermediately scoring shRNAs were tested in single assays. To this end, OSKM/RR/OG-MEFs were transduced with individual pLENC shRNAs in biological triplicates, selected, and treated with Dox for OSKM induction. The iPS reprogramming efficacy was quantified using flow cytometry analysis of the Oct-4-GFP reporter (FIG. 1) and microscopy (FIG. 2a).
To this end, described MEFs with doxycycline inducible reprogramming factors (OSKM, 4F, Yamanaka factors) were transduced with pLENC-shRNA vectors (co-expressing miRE-based shRNAs, mCherry and a Neo resistance gene) in biological triplicate as described previously. Selection for infected cells was based on G418 resistance. 3 days after infection, cells were trypsinized and each replicate was plated in multiple wells in presence of FCS and ascorbate containing medium as well as doxycycline. Cells were subjected to various conditions for iPS formation starting 24 h after Doxycycline addition, i.e. prior to expected full expression of OSKM factors. Doxycycline was added to media for 7 days. […]
shRNAs were transduced into OSKM MEFs. […] Cells were analyzed using a FACS BD LSRFortessa.

## CACAATTTACTGCCAAAACAA (listed as DNA, chemistry not fully specified) [Ube2i.414—2]
[1]
  effect on fraction of Oct4-GFP positive cells after 11 days: enhances reprogramming

## UUUACAAUUUGGAAGUAGCUG (expressed or natural sequence) [Chaf1a.3118]
[2]
  iPS cell formation (Oct4-GFP positive cells at day 11): robust formation of iPS cells

## CAGCTACTTCCAAATTGTAAA (listed as DNA, chemistry not fully specified) [Chaf1a.3120]
[1]
  effect on fraction of Oct4-GFP positive cells after 11 days: enhances reprogramming

## shRNA.Ren.713: neutral control shRNA (Ren.713) targeting Renilla (guide AGGAATTATAATGCTTATCTA)
[3]
  time of Oct4-GFP activation: day nine
[4]
  Colony number: 0
[5]
  Oct4-GFP+ cells: < 1%
